Results as given in patent publication US20020106348A1, “Cancer therapeutics involving the administration of 2-methoxyestradiol and an agent that increases intracellular superoxide anion” (priority 2000, published 2002).
pIC50: −log10 of the molar value. Like-named read-outs stand apart in the source and are kept apart here.

Legend:
ML-1 [1] = assay: Apoptosis / nucleosomal DNA fragmentation in ML-1 cells; type: cell-based, human; details: 1 μM; ML-1 (wt p53)
HL-60 [2] = assay: Apoptosis / nucleosomal DNA fragmentation in HL-60 cells; type: cell-based, human
K562 = assay: MTT assay, K562 cells; type: cell-based; details: Homo sapiens, K562 (no p53)
human CuZnSOD = molecular target: T1, human CuZnSOD (Homo sapiens, UniProt P00441); assay: In vitro SOD activity assay (xanthine/xanthine oxidase, XTT), human CuZnSOD; type: biochemical; details: purified enzyme; read-out: IC50, inhibition of human CuZnSOD
T1 construct: purchased Sigma

CLL cells [3] = test system: CLL cells
[4] = test system: leukemia cells from a CML (chronic myelogenous leukemia) patient in relapsed blast crisis; assay: Induction of apoptosis in primary leukemia cells from a CML patient; type: cell-based, human; details: in vitro
ML-1 cells = assay: Cellular O2^- by hydroethidine flow cytometry, ML-1 cells; type: cell-based, human; details: ML-1, 1 μM, 5 h; control 4.3
HL-60 cells [5] = assay: Cellular O2^- by flow cytometry, HL-60 cells; type: cell-based, human; details: 0.25 μM
CLL cells [6] = assay: Cellular O2^- by hydroethidine flow cytometry, CLL cells; type: cell-based, human
Method: The method using hydroethidine to detect O2^− in tissue sections was adapted for quantitation of intracellular O2^− by flow cytometry analysis. This assay is based on the unique chemical properties of hydroethidine, a weak blue fluorescent dye which is selectively converted by O2^− to ethidium with a bright red fluorescence. The control and drug-treated cells (1.5×10^6/sample) were incubated with hydroethidine (20 ng/ml) for 60 min, washed twice with 3 ml PBS, resuspended in 2 ml PBS, and then analyzed within 1 h by flow cytometry, using the red laser channel.

normal lymphocytes [7] = assay: DNA fragmentation in normal lymphocytes; type: cell-based, human; details: 0-30 μM, additional 3 days
PHA-treated lymphocytes = assay: MTT assay, PHA-stimulated lymphocytes; type: cell-based, human; details: 3-day drug incubation
ML-1 [8] = assay: MTT assay, ML-1 leukemia cells; type: cell-based; details: Homo sapiens, ML1, ML-1 (wt p53)
HL-60 [9] = assay: Release of cytochrome c to cytosol; type: cell-based, human
normal lymphocytes [10] = assay: MTT assay, normal lymphocytes from healthy donors; type: cell-based, human; details: normal lymphocytes from 8 healthy donors; MTT 72 h / 96 h
human DNA polymerase α = human DNA polymerase α (Homo sapiens, UniProt P09884); assay: Effect on DNA polymerase α; type: biochemical; details: 1-100 μM
HL-60 cells [11] = test system: HL-60 cells
CML cells = assay: MTT assay, primary CML cells; type: cell-based, human; details: 30 μM, 3 patients
CEM = assay: MTT assay, CEM leukemia cells; type: cell-based; details: Homo sapiens, CCRF-CEM, CEM (mutant p53)
E. coli MnSOD = E. coli MnSOD (Escherichia coli, UniProt P00448); assay: In vitro SOD activity assay, E. coli MnSOD; type: biochemical; details: purified enzyme; read-out: IC50, inhibition of E. coli MnSOD
Method: A spectrophotometric assay was used to determine the effect of 2-methoxyestradiol (2-ME) on SOD activity in vitro with purified enzymes (bovine CuZnSOD from Boehringer Mannheim; human CuZnSOD and E. coli MnSOD from Sigma). The reactions contained 2.5 ml of 50 mM Na2CO3, 0.1 ml of 3 mM xanthine, 0.1 ml of 3 mM EDTA, and 0.1 ml of 0.8 mM XTT (3′-(1-[phenylamino-carbonyl]3,4-tetrazolium)-bis(4-methoxy-6-nitro)benzene-sulfonic acid hydrate), and the indicated concentrations of SOD and 2-ME. Xanthine oxidase (0.1 ml, 64 mU/ml) was added to start the reaction. After incubation at 24° C. for 30 min, the absorbance at 470 nm was measured. The relative activity (RA) of SOD was calculated by the following formula: […]
where a is the absorbance of reaction without SOD, b is the absorbance of reaction with SOD but without 2-ME, c is the absorbance of reaction with SOD in the presence of 2-ME. All values were subtracted by the background reading of the blank. In separate experiments using nitro blue tetrazolium or cytochrome c as substrates for SOD assay, 2-ME and DMSO (as a solvent for 2-ME) interfered with the calorimetric reaction. These artifacts preclude the use of NBT or cytochrome c as the substrates for measuring the effect of 2-ME on SOD activity. Neither 2-ME nor DMSO affect the calorimetric reaction of XTT.

leukemia cell lines = assay: Apoptosis induction in leukemia cell lines; type: cell-based, human; details: leukemia cell lines tested
HL-60 [12] = assay: H2O2 generation in cell culture, HL-60 cells; type: cell-based, human
[13] = test system: ML-1, HL-60 and CLL cells; assay: HPLC analysis of cellular metabolites of [3H]2-ME; type: in vitro ADME, human; details: [3H]2-ME 0.5 μCi/ml, 5 h
Method: To determine cellular uptake of 2-ME, cells were incubated with 1 μM [^3H]2-ME (0.5 μCi/ml) for 5 h and when washed twice with cold PBS. Radioactivity associated with the cell pellets or the culture medium was quantitated by liquid scintillation counting. 2-ME concentrations were calculated based on the specific radioactivity of [^3H]2-ME, cell number, and the mean cell volume as measured by a Coulter Counter equipped with a 256-Channelyzer. HPLC was used to analyze potential cellular metabolites of 2-ME. Cells were incubated with [^3H]2-ME (0.5 μCi/ml) for 5 h, washed twice with PBS, and then extracted with 50% methanol. The extracts were analyzed by HPLC equipped with a UV detector (284 nm) and an on-line liquid scintillation counter, using a μBondapak C18 reversed-phase column and the following running conditions: 1 ml/min; 0-5 min, 100% buffer A (water:acetontrile:acetic acid=59:40:1); 5-17 min, a linear gradient of 0->100% buffer B (water:acetontrile:acetic acid=39:60:1); 17-30 min, 100% B.

SOD1 protein = assay: Immunoblot of SOD1 protein in ML-1 cells; type: cell-based, human; details: ML-1 cells at 10 h
Raji = assay: MTT assay, Raji cells; type: cell-based; details: Homo sapiens, Raji (mutant p53)

human DNA polymerase α, sequence (P09884 whole entry): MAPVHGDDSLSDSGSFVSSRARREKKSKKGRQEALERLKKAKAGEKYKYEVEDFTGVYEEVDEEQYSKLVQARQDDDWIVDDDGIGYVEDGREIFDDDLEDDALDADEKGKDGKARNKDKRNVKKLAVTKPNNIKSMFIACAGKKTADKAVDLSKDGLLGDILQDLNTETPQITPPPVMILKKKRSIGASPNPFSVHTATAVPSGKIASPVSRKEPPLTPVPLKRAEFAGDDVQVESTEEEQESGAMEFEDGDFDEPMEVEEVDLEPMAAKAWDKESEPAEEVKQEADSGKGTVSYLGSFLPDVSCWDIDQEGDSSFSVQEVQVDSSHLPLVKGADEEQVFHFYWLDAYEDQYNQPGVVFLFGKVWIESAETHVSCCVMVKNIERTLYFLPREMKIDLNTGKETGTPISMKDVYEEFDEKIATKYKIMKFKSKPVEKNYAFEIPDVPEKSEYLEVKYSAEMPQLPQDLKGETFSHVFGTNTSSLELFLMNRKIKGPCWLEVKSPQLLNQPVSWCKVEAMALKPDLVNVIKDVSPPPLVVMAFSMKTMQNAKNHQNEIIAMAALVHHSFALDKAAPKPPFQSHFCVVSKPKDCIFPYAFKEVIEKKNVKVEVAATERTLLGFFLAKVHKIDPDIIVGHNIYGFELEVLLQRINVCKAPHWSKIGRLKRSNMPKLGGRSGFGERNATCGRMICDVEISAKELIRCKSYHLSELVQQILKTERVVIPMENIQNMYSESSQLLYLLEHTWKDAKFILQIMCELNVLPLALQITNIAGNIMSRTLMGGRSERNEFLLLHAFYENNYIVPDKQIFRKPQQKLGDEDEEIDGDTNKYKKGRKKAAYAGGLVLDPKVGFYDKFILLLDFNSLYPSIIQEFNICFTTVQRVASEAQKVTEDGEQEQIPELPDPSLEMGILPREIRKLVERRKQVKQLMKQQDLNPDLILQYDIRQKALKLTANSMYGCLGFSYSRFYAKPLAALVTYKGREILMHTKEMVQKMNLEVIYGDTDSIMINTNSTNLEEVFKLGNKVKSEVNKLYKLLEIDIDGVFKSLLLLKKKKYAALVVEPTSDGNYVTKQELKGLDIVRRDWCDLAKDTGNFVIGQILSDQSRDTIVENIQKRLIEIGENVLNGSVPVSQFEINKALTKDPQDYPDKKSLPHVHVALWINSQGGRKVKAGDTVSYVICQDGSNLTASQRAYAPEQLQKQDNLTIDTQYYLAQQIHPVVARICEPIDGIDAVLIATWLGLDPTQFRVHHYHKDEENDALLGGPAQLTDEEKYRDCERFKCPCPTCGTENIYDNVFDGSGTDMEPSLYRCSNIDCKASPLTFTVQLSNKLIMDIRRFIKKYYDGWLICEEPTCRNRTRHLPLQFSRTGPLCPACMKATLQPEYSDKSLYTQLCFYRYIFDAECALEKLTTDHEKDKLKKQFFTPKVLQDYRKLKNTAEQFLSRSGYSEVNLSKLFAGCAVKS
E. coli MnSOD, sequence (P00448 whole entry): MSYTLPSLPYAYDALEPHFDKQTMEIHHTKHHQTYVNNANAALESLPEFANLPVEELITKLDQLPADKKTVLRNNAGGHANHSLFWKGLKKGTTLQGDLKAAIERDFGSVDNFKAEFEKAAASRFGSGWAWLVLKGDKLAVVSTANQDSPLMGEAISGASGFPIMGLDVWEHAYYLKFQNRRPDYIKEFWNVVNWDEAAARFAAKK
T1 sequence (P00441 whole entry): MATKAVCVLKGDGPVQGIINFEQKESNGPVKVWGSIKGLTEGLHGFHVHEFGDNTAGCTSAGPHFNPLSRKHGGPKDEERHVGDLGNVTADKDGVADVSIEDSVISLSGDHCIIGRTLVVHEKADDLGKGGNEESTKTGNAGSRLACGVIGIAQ

With `COc1cc2c(cc1O)CC[C@@H]1[C@@H]2CC[C@]2(C)[C@@H](O)CC[C@@H]12` [2-ME, 1,3,5(10)-estratrien-2,3,17b-triol 2 methylether] the “apoptotic morphology and nucleosomal DNA fragmentation” value (ML-1 [1]) was “Typical apoptotic morphology and nucleosomal DNA fragmentation were observed”, the “apoptotic morphology and nucleosomal DNA fragmentation” value (HL-60 [2]; 1 μM, HL-60 (p53−)) was “Typical apoptotic morphology and nucleosomal DNA fragmentation were observed” and the “DNA fragmentation (apoptosis) in HL-60 cells” value (HL-60 [2]; estrogen derivatives, FIG. 20) was “induced DNA fragmentation”. The pIC50 (K562) was over 6.00, the pIC50 (human CuZnSOD) was about 4.70 and the cell survival (CLL cells [3]; 30 μM, CLL cells, 31 patients) was 32.7%. The “sensitivity to single agent” value (CLL cells [3]; 2-ME-resistant CLL cells) was “insensitive to either drug alone”, the “toxicity to CLL cells versus normal lymphocytes” value (CLL cells [3]; 10 and 30 μM, p<0.0001) was “significantly more toxic to CLL cells than to normal lymphocytes” and the “sensitivity to single agent” value (CLL cells [3]; CLL cells of the two sensitive patients) was “relatively sensitive”. The “cell survival in CLL cells” value (CLL cells [3]; FIGS. 6-8, MTT 72-96 h) was “substantial loss of cell survival”, the cell survival (CLL cells [3]; primary leukemia cells from a CLL patient, 2-ME alone (FIG. 32)) was “loss of cell survival” and the “apoptosis in primary CML cells” value [4] was “induced apoptosis”. The “cellular O2^− content” value (ML-1 cells) was 6.3 arbitrary units, the “cellular O2^− content” value (HL-60 cells [5]) was “increase of cellular O2^−” and the “O2^− increase” value (CLL cells [6]; CLL cells, 30 μM) was 226±37%. The “cellular O2^−” value (CLL cells [6]; primary leukemia cells from a CLL patient, 2-ME alone) was “significant accumulation of cellular O2^−”, the “nucleosomal DNA fragmentation” value (normal lymphocytes [7]) was “no nucleosomal DNA fragmentation was detected” and the “viability of PHA-treated lymphocytes” value (PHA-treated lymphocytes) was “remained viable”. The “proliferation of PHA-treated lymphocytes” value (PHA-treated lymphocytes; MTT, PHA 5 μg/ml) was “inhibited the proliferation”, the pIC50 (ML-1 [8]) was over 6.00 and the cytosolic cytochrome c (HL-60 [9]; at 12 and 14 h) was “significant amounts of cytosolic cytochrome c were detected”. For the same compound, the cytosolic cytochrome c (HL-60 [9]; during the first 10 h) was “no cytochrome c was present in cytosol”, the cell survival (normal lymphocytes [10]) was “no apparent loss of cell survival” and the “effect on DNA polymerase α” value (human DNA polymerase α) was “little effect”. For the same compound, the rhodamine-123 fluorescence intensity (HL-60 cells [11]; 14 h exposure, control 70-100 arbitrary units) was 20-40 units, the rhodamine-123 retention (HL-60 cells [11]; by 22 h) was “almost all the cells had lost their ability to retain rhodamine-123” and the rhodamine-123 retention (HL-60 cells [11]; first 6 h of incubation) was “no obvious loss of dye retention”. It also gave a cell survival (CML cells) of 54.7%, a pIC50 (CEM) of over 6.00 and a pIC50 (E. coli MnSOD) of about 4.70. For the same compound, the concentrations inducing apoptosis (leukemia cell lines) was 1 to 10 µM, the H2O2 production (HL-60 [12]) was “concentration-dependent decrease of H2O2” and the cellular drug metabolites [13] was “no significant drug metabolites”. For the same compound, the “increase of SOD1 protein” value (SOD1 protein) was 74% and the pIC50 (Raji) was over 6.00.
